Measured values published in patent US5145839A, “Pharmaceutical composition and method of use” (priority 1988, dated 1992).

Key:
cancer cell DNA = experiment: UV absorbance at 260 nm (hypochromicity, DNA chain contraction), cancer cell DNA; conditions: 20 μg DNA in 1 ml Tris-HCl pH 7.3, room temperature, FIGS. 5a, 5b
From the text: (§1) Naringin prepared in accordance with Example 1, and a commercial sample of naringenin prepared by Roth Co. of France, were used for comparison. […] The results are expressed as decrease of UV absorbance (hypochromicity) in the presence of various concentrations of the agent. The hypochromicity corresponds to DNA chain contraction, while hyperchromicity would correspond to DNA chain opening (i.e. the breaking of hydrogen bonds which normally hold the two DNA chains together). The spleen and bone marrow DNAs used in this test were from normal human spleen and bone marrow tissue cells. UV absorbance at wavelength of 260 nm for different DNAs from normal and cancer cells is performed at room temperature. 20 μg (micrograms) of DNA (deoxyribonucleic acid) are dissolved in 1 ml of Tris-HC1 buffer (10^-2 molar, pH adjusted to 7.3, solution made using sterile distilled water). The absorbance is measured before and after addition of either naringin or naringenin. The blank cuvette contains an equivalent amount of naringin or naringenin, but not DNA. The contact between DNA and compound is of about one minute (very slight agitation). The absorbance at 260 nm is then measured. The results are expressed as diminution (%) of UV absorbance.

[1] = tested on: normal cell DNA (spleen and bone marrow); experiment: UV absorbance at 260 nm (hypochromicity, DNA chain contraction), normal cell DNA; conditions: normal human spleen and bone marrow DNA, 20 μg in 1 ml Tris-HCl pH 7.3, 260 nm; FIGS. 5a, 5b
From the text: as §1

[2] = tested on: tobacco mosaic virus (TMV); experiment: tobacco mosaic virus multiplication on tobacco leaf (plaque forming units); conditions: 20-50 micrograms per milliliter, virus incubated at 30° C. for 30 min.; xanthy tobacco leaf; checked two to three days later; FIG. 7
Procedure: The effect of naringin prepared according to Example 1, of commercial naringin and of commercial naringenin has been tested on tobacco mosaic virus (TMV). In this experiment, viral suspension containing 2 μg of virus/ml of distilled water, was incubated at 30° C. for 30 min. with each of the above compounds (20-50 micrograms per milliliter) and then 20 μl placed on one-half of the leaf ([…] tobacco) while the same concentration of untreated virus was placed on the other half of the same leaf. The appearance of viral disease was checked two to three days later. […] Naringenin or commercial naringin gave similar results.

[3] = tested on: Terminal deoxynucleotidyl Transferase (TdT); experiment: in vitro activity of TdT in cat leucosis vaccine (Leucocell); format: biochemical; conditions: 10 minutes at 36° C., pH 7.70, FIG. 6
From the text: Both naringin and naringenin inhibit in vitro the activity of Terminal deoxynucleotidyl Transferase (TdT), an enzyme involved in the integration of viral genome into host cell. This enzyme is present in cat leucosis vaccine prepared by genetic engineering (Engerix® Leucocell vaccine), vaccine highly purified. I have previously shown that this enzyme catalyzes the polymerisation of d-TMP and d-CMP originating from d-TTP and d-CTP used respectively as substrates.
(§2) For testing the activity of TdT, the incubation medium (0.10 ml final volume) contains: 25 μmoles fresh solution of Tris-HC1 buffer pH 7.70; 2 μmoles MgCl2; (^3 d-NTP (deoxynucleoside-5'-triphosphate, 100,000 CPM). Increasing amounts of Leucocell vaccine (as indicated in FIG. 6) are used. Incubation for 10 minutes at 36° C., then addition of an equal volume of trichloroacetic acid (TCA 5%). Acid-precipitable material is filtered on millipore (Whatman GF/C), washed with 5% TCA then with 95° alcohol. After millipore drying, radioactivity of acid-insoluble material is measured in scintillation spectrometer Packard. The results are expressed as CPM (counts/minute)/sample.

[4] = tested on: Terminal deoxynucleotidyl Transferase (TdT); experiment: in vitro activity of TdT which contaminates Engerix-vaccine antigen B; format: biochemical; conditions: TdT which contaminates Engerix-vaccine antigen B (DNA virus antigen), same conditions
Procedure: as §2
In contrast, the activity of TdT which contaminates Engerix®-vaccine antigen B (Med. Sci. Res. 1987, vol.15 pp. 529-530), an antigen prepared from DNA virus is not inhibited, under the same conditions, by naringin or naringenin. Thus both naringin and naringenin selectively interfere with the proliferation of RNA virus but not DNA virus. However, as RNA from RNA-virus is transcribed into DNA by reverse transcriptase before being integrated into cell genome (potential role of TdT), naringin and naringenin are equally useful agents in treatment of all DNA infections equally.

BALB C mice = experiment: toxicity by intravenous route in BALB C mice; format: in vivo, mouse; conditions: for toxic effect: i.v. route, 10% DMSO, BALB C mice; for tolerability: i.v. injection or perfusion, doses from 250-1000 mg/kg (concluded)
From the text: This example illustrates the absence of toxicity of naringin or naringenin injected by intravenous route to BALB C mice.

[5] = tested on: DNAs from different human cancer tissues, i.e. breast, colon and liver cancers; experiment: in vitro synthesis (replication) of DNA from human cancer tissues; format: biochemical; conditions: FIG. 3
From the text: (§3) […]
(§4) DNAs used were isolated from human cancer and normal tissues furnished by different hospitals as indicated in IRCS Medical Science 14: 809-810, 1986. The normal brain tissue originated from Macaca mulatta.

[6] = tested on: DNAs from normal tissues (human bone marrow and spleen); experiment: in vitro synthesis (replication) of DNA from normal human tissues; format: biochemical; conditions: FIG. 3
From the text: as §3, §4

[7] = tested on: DNA from normal monkey brain; experiment: in vitro synthesis (replication) of DNA from normal monkey brain; format: biochemical; conditions: Macaca mulatta brain; FIG. 3
From the text: as §3, §4

[8] = tested on: DNA from cancerous tissue; experiment: in vitro synthesis of tritium-labeled cancer DNA, agent added at different points in time; format: biochemical; conditions: FIGS. 4a, 4b
From the text: The same test method was used on DNA from cancerous tissue, determining the amount of tritium-labeled DNA synthesized over a period of time and the effect of introducing naringin at different points in time.

human cancer cells = experiment: effect on in vitro cultured human cancer cells; format: cell-based; conditions: various concentrations; ovary cancer and leukemic cells resistant to classical chemotherapy; FIG. 2
Procedure: (§5) Naringin prepared in Example 1 has been used for determining its effect on in vitro cultured human cancer and normal cells, according to the method of Shoermaker R.H. et al., Cancer Research 45: 2145-2153, 1985). Culture medium contained 100 μg of penicillin and streptomycin in order to prevent bacterial contamination.

[9] = tested on: normal human bone marrow cells; experiment: effect on in vitro cultured normal human bone marrow cells; format: cell-based; conditions: various concentrations; FIG. 2
Procedure: as §5

Ehrlich ascitic cells = experiment: mice bearing Ehrlich ascitic cells; format: in vivo, Swiss mice; conditions: than lymphoma YC8 cells
Procedure: (§6) O BALB C mice bearing lymphoma YC8 (ascitic form) and Swiss mice bearing Ehrlich ascitic cells (20-22 grams, Charles River breeding) were distributed at random in sets of 10.
Set II: Mice bearing tumor cells received JO-1 (= naringin, Example 1): 0.2 ml/mouse, twice/day, i.p. route (for JO-1 concentrations, see Tables 1, 3, and 4, and FIG. 10.)
(§7) Ascitic tumor cells were taken in sterile medium from mice bearing these cells for 15-20 days. 0.1 ml of ascitic suspension was mixed with 10 ml of buffered solution (pH 7.2) : (NaCl 7.2 g/l; Na2 HPO4 4.3 g/l and KH2 PO4 0.4 g/l).
(§8) The number of cells was determined (by Malassez cell) and cellular suspension diluted in order to get cell number close to 40.000-50.000/ml. 0.1 ml of this suspension was immediately injected by i.p. route to mice in sets I, II and III and by i.m. route to mice in set IV.
(§9) Treatment: 48 hours after injection of tumor cells: the mice of set II received (i.p.) JO-1 heated at 37° and filtered on millipore, treatment for five consecutive days; the mice of set III were treated (i.p.) by a mixture of JO-1 and one of the antibiotics for 5 consecutive days; the mice of set I (control) received (i.p.) only isotonic solution for 5 consecutive days; the mice of set IV received (i.m.) JO-1 for 15 consecutive days.
Only the survivors in excellent physical condition were taken into consideration .

tumor cells = experiment: mice bearing tumor cells treated with naringin and a chemotherapeutic agent; format: in vivo, mouse; conditions: with 5-fluorouracil, ARA-C, Endoxan, hydroxy-urea; i.p.; FIGS. 9a-9b, 10a-10d
Procedure: as §6
Set III: Mice bearing tumor cells received naringin (JO-1): 0.2 ml/mouse twice/day (for concentrations, see FIGS. 9 and 10), i.p. route and, at the same time these mice received a chemotherapeutic agent (for concentrations, see FIGS. 9 and 10) i.p. route.
as §7, §8
as §9, with “days. […]” for “days.”

[10] = biological activity compared with commercial compounds; conditions: compared with that exhibited by commercial compounds

Compound: O=C1C[C@@H](c2ccc(O)cc2)Oc2cc(O)cc(O)c21 [naringenin]
- contraction of cancer cell DNA chains (hypochromicity) (cancer cell DNA): contract cancer cell DNA chains
- contraction of normal cell DNA chains (hypochromicity) [1]: either no effect or a very slight effect
- inhibition of TMV multiplication [2]: inhibits TMV multiplication
- inhibition of in vitro activity of TdT [3]: inhibit in vitro activity of TdT
- inhibition of in vitro activity of TdT [4]: not inhibited
- toxic effect (BALB C mice; 125 mg/kg): no toxic effect
- toxic effect (BALB C mice; 250 mg/kg): no toxic effect
- toxic effect (BALB C mice; 500 mg/kg): no toxic effect
- tolerability (BALB C mice): well tolerated

Compound: C[C@@H]1O[C@@H](O[C@H]2[C@H](Oc3cc(O)c4c(c3)O[C@H](c3ccc(O)cc3)CC4=O)O[C@H](CO)[C@@H](O)[C@@H]2O)[C@H](O)[C@H](O)[C@H]1O [naringin]
- inhibition of in vitro synthesis of DNAs from human cancer tissues [5]: strongly inhibits
- effect on in vitro synthesis of DNAs from normal human tissues [6]: practically unaffected
- effect on in vitro synthesis of DNA from normal monkey brain [7]: practically unaffected
- effect on DNA chain elongation ([8]; added after the reaction starts): stops DNA chain elongation
- effect on DNA initiation ([8]; given at zero time of incubation): acts on DNA initiation sites
- contraction of cancer cell DNA chains (hypochromicity) (cancer cell DNA): contract cancer cell DNA chains
- contraction of normal cell DNA chains (hypochromicity) [1]: either no effect or a very slight effect
- inhibition of in vitro cultured human cancer cells (human cancer cells): strongly inhibits
- effect on in vitro cultured normal human bone marrow cells [9]: little effect
- inhibition of TMV multiplication [2]: inhibits TMV multiplication
- inhibition of in vitro activity of TdT [3]: inhibit in vitro activity of TdT
- inhibition of in vitro activity of TdT [4]: not inhibited
- toxic effect (BALB C mice; 125 mg/kg): no toxic effect
- toxic effect (BALB C mice; 250 mg/kg): no toxic effect
- toxic effect (BALB C mice; 500 mg/kg): no toxic effect
- tolerability (BALB C mice): well tolerated
- sensitivity of Ehrlich ascitic cells to naringin compared with lymphoma YC8 cells (Ehrlich ascitic cells): less sensitive
- synergistic action with classical antibiotics (tumor cells): synergistic action
- biological activity [10]: better biological activity
